Source: patent US20240245658A1, “TAAR1 AND SEROTONIN MODULATORS, AND PHARMACEUTICAL COMPOSITIONS, AND METHODS OF USE THEREOF” (Sunovion Pharmaceuticals Inc., priority 2021, published 2024)
Read-outs that look alike come from different tables or passages of the source.

Tests used:
Type in all cases: cell-based
human TAAR1 receptors = biological target: T1, human TAAR1 receptors (Homo sapiens, UniProt Q96RJ0); assay: TAAR1 Agonism Assay: cAMP HTRF assay for Gs coupled receptor TAAR1 (Euroscreen FAST-0987C); conditions: CHO-K1 cells expressing human TAAR1, cAMP HTRF
T1 construct: host or cells: CHO-K1
T1 sequence (Q96RJ0 1-339): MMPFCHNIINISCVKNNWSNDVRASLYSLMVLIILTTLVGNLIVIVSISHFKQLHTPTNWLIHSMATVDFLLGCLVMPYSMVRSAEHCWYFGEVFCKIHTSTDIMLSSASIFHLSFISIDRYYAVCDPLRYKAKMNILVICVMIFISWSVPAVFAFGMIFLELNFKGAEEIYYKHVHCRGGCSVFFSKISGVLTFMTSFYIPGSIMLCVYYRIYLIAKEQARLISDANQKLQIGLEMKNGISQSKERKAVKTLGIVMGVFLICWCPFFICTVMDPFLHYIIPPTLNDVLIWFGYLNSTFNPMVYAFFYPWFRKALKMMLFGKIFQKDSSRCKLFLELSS
Description: Dose response curves were performed in parallel with the reference compound, tyramine.
For the TAAR1 agonist test (performed in a 384 well plate): 5 μl of cells (about 3,000 cells) were mixed with 5 μl of the test compound diluted in assay buffer and then incubated for about 30 minutes at about room temperature. After addition of the lysis buffer containing cAMP-d2 and anti-cAMP cryptate detection reagents, plates were incubated for about a 1-hour incubation at about room temperature, and fluorescence ratios were measured according to the manufacturer specifications, with the HTRF (Homogeneous Time Resolved Fluorescence) kit (cAMP Gs dynamic kit, Cisbio Bioassays, 62AM4PEJ).
(§1) Compounds were tested at the following nanomolar concentrations, in duplicate: 0.3 nM, 1 nM, 3 nM, 10 nM, 30 nM, 100 nM, 300 nM, 1,000 nM, 3,000 nM, and 10,000 nM.

human 5-HT2A receptor = biological target: T2, human 5-HT2A receptor (Homo sapiens, UniProt P28223); assay: 5HT2A Antagonism Assay (Euroscreen FAST-05051), IP-One HTRF
T2 construct: host or cells: CHO-K1
T2 sequence (P28223 whole entry): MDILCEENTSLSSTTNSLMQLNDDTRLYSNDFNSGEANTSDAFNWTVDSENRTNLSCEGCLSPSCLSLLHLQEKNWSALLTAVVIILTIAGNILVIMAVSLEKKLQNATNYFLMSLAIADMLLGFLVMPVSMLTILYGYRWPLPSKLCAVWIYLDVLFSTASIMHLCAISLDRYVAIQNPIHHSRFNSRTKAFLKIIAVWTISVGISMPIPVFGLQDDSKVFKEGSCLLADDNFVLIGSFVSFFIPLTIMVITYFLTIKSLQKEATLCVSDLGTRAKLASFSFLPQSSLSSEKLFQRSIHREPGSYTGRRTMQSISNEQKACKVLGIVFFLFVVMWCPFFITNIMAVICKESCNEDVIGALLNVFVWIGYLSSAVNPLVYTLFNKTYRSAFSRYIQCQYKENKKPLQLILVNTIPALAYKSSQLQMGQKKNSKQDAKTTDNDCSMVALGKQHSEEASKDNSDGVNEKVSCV
Description: 5HT2A Antagonism Assay Protocol (Euroscreen FAST-05051)
CHO-K1 cells expressing the human 5-HT2A receptor grown to mid-log phase in culture media without antibiotics, were detached with PBS-EDTA, centrifuged, and resuspended in the IP-One Gq kit (Cisbio Bioassays, 62IPAPEC) stimulation buffer.
For antagonist testing in a 384 well plate: 5 μl of cells (20,000 cells) were mixed with 5 μl of a mix of test compound and reference agonist (for a final assay concentration corresponding to its EC80) diluted in stimulation buffer. The plate was incubated for 60 minutes at 37° C. in a humidified atmosphere of 95% air with 5% CO2, then 5 μL of IP1-d2 and anti-IP1 cryptate detection reagents were added to each well, the plates were incubated for about 1 hour at about room temperature. Fluorescence ratios are measured according to the manufacturer's specification (IP-One Gq kit (Cisbio Bioassays, 62IPAPEC).
Dose response curves were performed in parallel with reference compounds (e.g., α-methyl-5-HT. Compounds were tested at the following nanomolar concentrations, in duplicate: 0.3 nM, 1 nM, 3 nM, 10 nM, 30 nM, 100 nM, 300 nM, 1,000 nM, 3,000 nM, and 10,000 nM

human 5-HT7 receptor = biological target: T3, human 5-HT7 receptor (Homo sapiens, UniProt P34969); assay: 5HT7 Antagonism Assay (Euroscreen FAST-0499C), cAMP HTRF; conditions: CHO-K1 cells expressing human 5-HT7, reference agonist at EC80, cAMP HTRF
T3 construct: host or cells: CHO-K1
T3 sequence (P34969 whole entry): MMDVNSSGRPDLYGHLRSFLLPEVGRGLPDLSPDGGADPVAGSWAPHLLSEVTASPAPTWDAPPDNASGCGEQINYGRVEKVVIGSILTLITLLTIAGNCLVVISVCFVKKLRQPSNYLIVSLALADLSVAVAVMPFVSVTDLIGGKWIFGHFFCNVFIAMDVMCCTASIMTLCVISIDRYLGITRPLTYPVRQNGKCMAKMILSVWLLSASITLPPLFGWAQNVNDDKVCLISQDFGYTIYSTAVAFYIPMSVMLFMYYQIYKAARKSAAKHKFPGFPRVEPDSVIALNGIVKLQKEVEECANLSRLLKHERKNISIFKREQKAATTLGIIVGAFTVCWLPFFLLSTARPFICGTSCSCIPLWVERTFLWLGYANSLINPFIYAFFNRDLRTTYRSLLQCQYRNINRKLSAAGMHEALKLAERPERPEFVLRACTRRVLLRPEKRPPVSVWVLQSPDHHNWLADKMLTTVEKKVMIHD
Description: 5HT7 Antagonism Assay Protocol (Euroscreen FAST-0499C)
CHO-K1 cells expressing the human 5-HT7 receptor, grown prior to the test in media without antibiotic, were detached by gentle flushing with PBS-EDTA (5 mM EDTA), recovered by centrifugation and resuspended in assay buffer (Krebs-Ringer HEPES buffer: 5 mM KCl, 1.25 mM MgSO4, 124 mM NaCl, 25 mM HEPES, 13.3 mM Glucose, 1.25 mM KH2PO4, 1.45 mM CaCl2), 0.5 g/l BSA, supplemented with 1 mM IBMX).
Dose response curves were performed in parallel with reference compounds (e.g., 5-carboxamidotryptamine (5-CT)).
For antagonist testing in a 384 well plate: 5 μl of cells (3000 cells) were mixed with 5 μl of a mix of test compound and reference agonist (for a final assay concentration corresponding to its EC80) diluted in assay buffer. The plates were then incubated for about 30 minutes at about room temperature. After addition of the lysis buffer containing cAMP-d2 and anti-cAMP cryptate detection reagents, plates were incubated for about 1 hour at about room temperature, and fluorescence ratios were measured according to the manufacturer's specifications (HTRF kit: cAMP Gs dynamic kit, Cisbio Bioassays, 62AM4PEJ).
as §1

[1] = read-out: 5-HT2A (IC50), CHO-K1 cells expressing human 5-HT2A, reference agonist at EC80, IP-One
[2] = 5-HT2A (IC50), CHO-K1 cells expressing human 5-HT2A, reference agonist at EC80, IP-One
[3] = CHO-K1 cells expressing human 5-HT2A, reference agonist at EC80, IP-One, read-out: 5-HT2A (IC50)

SMILES | EC50 (human TAAR1 receptors) [nM] | IC50 (human 5-HT2A receptor; [1]) [nM] | IC50 (human 5-HT7 receptor) [nM] | IC50 (human 5-HT2A receptor; [2]) [nM] | IC50 (human 5-HT2A receptor; [3]) [nM]
NCC1Cc2ncccc2Oc2ccccc21 (single isomer, unassigned) [Compound 30, (S*)-(10,11-dihydrobenzo[6,7]oxepino[3,2-b]pyridin-10-yl)methanamine] | < 1000 | 1000 to 10000 | ≥ 10000 |  | 
Cc1ccc2c(c1)CC(CN)c1ncccc1O2 (single isomer, unassigned) [Compound 129, (R*)-(8-methyl-10,11-dihydrobenzo[6,7]oxepino[3,2-b]pyridin-11-yl)methanamine] | < 1000 |  | < 1000 | < 1000 | 
NCC1Cc2ncccc2Oc2ccccc21 (single isomer, unassigned) [Compound 29, (R*)-(10,11-dihydrobenzo[6,7]oxepino[3,2-b]pyridin-10-yl)methanamine] | 1000 to 10000 |  | ≥ 10000 | 1000 to 10000 | 
CNCC1Cc2ccccc2Oc2ccc(F)cc21 (single isomer, unassigned) [Compound 94, (R*)-(8-fluoro-10,11-dihydrodibenzo[b,f]oxepin-10-yl)-N-methylmethanamine] | < 1000 |  | 1000 to 10000 | < 1000 | 
CNCC1Cc2ncccc2Oc2cc(Cl)ccc21 (single isomer, unassigned) [Compound 173, (R*)-1-(7-chloro-10,11-dihydrobenzo[6,7]oxepino[3,2-b]pyridin-10-yl)-N-methylmethanamine] | > 10000 |  | ≥ 10000 |  | < 1000
Cc1ccc2c(c1)Oc1cccnc1C(CN)C2 (single isomer, unassigned) [Compound 133, (R*)-(7-methyl-10,11-dihydrobenzo[6,7]oxepino[3,2-b]pyridin-11-yl)methanamine] | < 1000 |  | ≥ 10000 | 1000 to 10000 | 
NCC1Oc2ccccc2Oc2ccncc21 (single isomer, unassigned) [Compound 53, (R*)-(11H-benzo[2,3][1,4]dioxepino[6,5-c]pyridin-11-yl)methanamine] | 1000 to 10000 |  | ≥ 10000 |  | > 10000
CNCC1Cc2ncccc2Oc2ccc(F)cc21 (single isomer, unassigned) [Compound 165, (R*)-(8-fluoro-10,11-dihydrobenzo[6,7]oxepino[3,2-b]pyridin-10-yl)-N-methylmethanamine] | > 10000 |  | ≥ 10000 | < 1000 | 
NCC1Cc2ccncc2Oc2ccccc21 (single isomer, unassigned) [Compound 21, (R*)-(5,6-dihydrobenzo[6,7]oxepino[2,3-c]pyridin-6-yl)methanamine] | < 1000 |  | ≥ 10000 | 1000 to 10000 | 
NCC1Cc2ncccc2Oc2cc(F)ccc21 (single isomer, unassigned) [Compound 36, (S*)-(7-fluoro-10,11-dihydrobenzo[6,7]oxepino[3,2-b]pyridin-10-yl)methanamine] | < 1000 |  | ≥ 10000 | < 1000 | 
NCC1Cc2cc(Cl)ccc2Oc2cccnc21 (single isomer, unassigned) [Compound 121, (R*)-(8-chloro-10,11-dihydrobenzo[6,7]oxepino[3,2-b]pyridin-11-yl)methanamine] | < 1000 |  | < 1000 | < 1000 | 
CNCC1Cc2c(F)cccc2Oc2ccccc21 (single isomer, unassigned) [Compound 83, (S*)-1-(1-fluoro-10,11-dihydrodibenzo[b,f]oxepin-10-yl)-N-methylmethanamine] | > 10000 | < 1000 | 1000 to 10000 |  | 
NCC1Cc2ncccc2Oc2ccc(F)cc21 (single isomer, unassigned) [Compound 163, (R*)-(8-fluoro-10,11-dihydrobenzo[6,7]oxepino[3,2-b]pyridin-10-yl)methanamine] | 1000 to 10000 |  | ≥ 10000 | 1000 to 10000 | 
CNCC1Cc2ccncc2Oc2ccccc21 (single isomer, unassigned) [Compound 23, (R*)-1-(5,6-dihydrobenzo[6,7]oxepino[2,3-c]pyridin-6-yl)-N-methylmethanamine] | < 1000 |  | < 1000 | < 1000 | 
CNCC1Cc2ccccc2Oc2cccc(F)c21 (single isomer, unassigned) [Compound 107, (S*)-(9-fluoro-10,11-dihydrodibenzo[b,f]oxepin-10-yl)-N-methylmethanamine] | > 10000 |  | ≥ 10000 | 1000 to 10000 | 
CNCC1Cc2ccc(C)cc2Oc2cccnc21 (single isomer, unassigned) [Compound 134, (S*)—N-methyl-1-(7-methyl-10,11-dihydrobenzo[6,7]-oxepino[3,2-b]pyridin-11-yl)methanamine] | < 1000 |  | 1000 to 10000 | < 1000 | 
CNCC1Cc2c(C)cccc2Oc2cccnc21 (single isomer, unassigned) [Compound 143, (R*)-(9-methyl-10,11-dihydrobenzo[6,7]oxepino[3,2-b]pyridin-11-yl)-N-methylmethanamine] | < 1000 |  | ≥ 10000 | < 1000 | 
CNCC1Cc2cccnc2Oc2ccccc21 (single isomer, unassigned) [Compound 19, (R*)-1-(5,6-dihydrobenzo[6,7]oxepino[2,3-b]pyridin-6-yl)-N-methylmethanamine] | 1000 to 10000 |  | ≥ 10000 |  | 1000 to 10000
NCC1Cc2ncccc2Oc2cc(Cl)ccc21 (single isomer, unassigned) [Compound 172, (S*)-(7-chloro-10,11-dihydrobenzo[6,7]oxepino[3,2-b]pyridin-10-yl)methanamine] | < 1000 | < 1000 | ≥ 10000 |  | 
CNCC1Cc2c(F)cccc2Oc2cccnc21 (single isomer, unassigned) [Compound 138, (S*)-1-(9-fluoro-10,11-dihydrobenzo[6,7]oxepino[3,2-b]pyridin-11-yl)-N-methylmethanamine] | < 1000 |  | ≥ 10000 | < 1000 | 
NCC1Cc2cc(F)ccc2Oc2ccccc21 (single isomer, unassigned) [Compound 96, (R*)-(2-fluoro-10,11-dihydrodibenzo[b,f]oxepin-10-yl)methanamine] | < 1000 |  | ≥ 10000 | < 1000 | 
CNCC1Cc2ncccc2Oc2ccccc21 (single isomer, unassigned) [Compound 31, (R*)-1-(10,11-dihydrobenzo[6,7]oxepino[3,2-b]pyridin-10-yl)-N-methylmethanamine] | > 10000 |  | ≥ 10000 | < 1000 | 
NCC1Oc2ccccc2Oc2ccncc21 (single isomer, unassigned) [Compound 54, (S*)-(11H-benzo[2,3][1,4]dioxepino[6,5-c]pyridin-11-yl)methanamine] | 1000 to 10000 |  | ≥ 10000 |  | > 10000
